Data published in US8257749B2, “Systems providing at least pesticidal activity” (Biolargo Life Technologies, Incorporated, priority 2007, dated 2012).

How the values were obtained:
enterococci [1] = assay: longer term experiment, sand dosed with pure culture of enterococci and imbibed with iodine solution; assay type: cell-based
Method: (§1) In a first experiment, a natural sample from Santa Monica beach was user. This soil sample was taken from an area close to a storm drain. Concentrations started at 1100 MPN enterococci per 100 gram sediment were used. Wash samples having a concentration of greater than 10 parts per million were used on the soil samples. Enterocci concentrations approached zero for all of five consecutive washes. A longer term experiment was then performed with sand dosed with a pure culture of enterococci, the >10 ppm iodine solution imbibed in the soil, and then autoclaving. The bacterial level started at 1050 MPN/100 g, and went to zero immediately upon treatment. This was clearly evidenced in five washes (all zero). Two samples were treated with >10 ppm iodine solutions and left to sit on the roof for several days. The bacterial levels were approximately zero at the end of the experiment. Samples that were imbibed with the >10 ppm solution and the sand raked, had bacterial levels that decreased in concentration during the days, and rebounded at night for two nights, and then ended up at zero, indicating effectiveness of the solution, and a benefit to combination of the solution with heat and/or light. The undisturbed controls in both dark and light ended up with countable bacteria at the end.
In a first experiment showing the efficacy of the iodine treatment on bacteria in soil, a natural sample from Santa Monica beach was user. This soil sample was taken from an area close to a storm drain. Concentrations started at 1100 MPN enterococci per 100 gram sediment were used. Wash samples having a concentration of greater than 10 parts per million were used on the soil samples. Enterocci concentrations approached zero for all of five consecutive washes. A longer term experiment was then performed with sand dosed with a pure culture of enterococci, the >10 ppm iodine solution imbibed in the soil, and then autoclaving. The bacterial level started at 1050 MPN/100 g, and went to zero immediately upon treatment. This was clearly evidenced in five washes (all zero). […]

enterococci [2] = assay: iodine wash of natural Santa Monica beach soil sample; assay type: cell-based; settings: started at 1100 MPN, wash samples greater than 10 parts per million, all of five consecutive washes
Method: as §1, with “end. […]” for “end.”

SMILES: II [iodine solution, molecular iodine]
- bacterial levels at end, imbibed and raked sand (enterococci [1]; >10 ppm solution, sand raked, decreased during the days, rebounded at night for two nights): zero
- bacterial level immediately upon treatment (enterococci [1]; sand dosed with pure culture, started at 1050 MPN/100 g, >10 ppm iodine solution imbibed, five washes (all zero)): zero
- bacterial levels at the end of the experiment (enterococci [1]; two samples treated with >10 ppm iodine solutions, left to sit on the roof for several days): approximately zero
- Enterocci concentrations after wash (enterococci [2]): approximately zero
